Measured values published in ChEMBL document CHEMBL1201862, “PubChem BioAssay data set” (2004).
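Exposure lasted 48 hours, with cells grown in 96-well plates and compounds tested at five concentrations. At the GI50, growth is halved.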 Calls of active or inactive are those of the source. No stated cut-off is given here; in the data, active = GI50 up to about 1.1 µM and inactive = higher.

Columns and labels:
Experiment in all cases: NCI anticancer screen, dose series, 48 h
[1] = tested on: LOX IMVI
[2] = tested on: U-251
[3] = tested on: SK-MEL-5
[4] = tested on: RXF 393
[5] = tested on: ACHN
[6] = tested on: Malme-3M
[7] = tested on: 786-0
[8] = tested on: SW-620
[9] = tested on: EKVX
[10] = tested on: HCT-15
[11] = tested on: SR
[12] = tested on: NCI-H23
[13] = tested on: CCRF-CEM
[14] = tested on: SNB-19
[15] = tested on: NCI-H460
[16] = tested on: OVCAR-3
[17] = tested on: HL-60
[18] = tested on: OVCAR-4
[19] = tested on: HCC 2998

SMILES | GI50 [1] | GI50 [2] | GI50 [3] | GI50 [4] | GI50 [5] | GI50 [6] | GI50 [7] | GI50 [8] | GI50 [9] | GI50 [10] [µM] | GI50 [11] | GI50 [12] | GI50 [13] | GI50 [14] | GI50 [15] | GI50 [16] | GI50 [17] | GI50 [18] | GI50 [19]
Nc1nc(-c2ccco2)cc(-c2ccco2)n1 | > 100 µM (inactive) | > 100 µM (inactive) | > 100 µM (inactive) | > 100 µM (inactive) | > 100 µM (inactive) | > 100 µM (inactive) | > 100 µM (inactive) | > 100 µM (inactive) | > 100 µM (inactive) | > 100 | > 100 µM (inactive) | > 100 µM (inactive) | > 100 µM (inactive) | 41.8 µM (inactive) | > 100 µM (inactive) | > 100 µM (inactive) | > 100 µM (inactive) | > 100 µM (inactive) | 
C/C=C(/CCC1NCCC2c3ccccc3NC12)[Si](C)(C)C (stereo unspecified) | 7.31 µM (inactive) | 12.8 µM (inactive) | 12.8 µM (inactive) | 6.53 µM (inactive) | 14.2 µM (inactive) |  | 11.3 µM (inactive) | 3.02 µM (inactive) | 14.4 µM (inactive) | 12.4 | 2.9 µM (inactive) | 13.8 µM (inactive) | 3.6 µM (inactive) | 15.5 µM (inactive) | 3.3 µM (inactive) | 11.4 µM (inactive) | 2.12 µM (inactive) | 7.57 µM (inactive) | 2.02 µM (inactive)
NS(=O)(=O)c1ccc(NC(=O)c2cccn3c(=O)c4ccccc4nc23)cc1 | 86.3 µM (inactive) | > 100 µM (inactive) | > 100 µM (inactive) | > 100 µM (inactive) | > 100 µM (inactive) | > 100 µM (inactive) | > 100 µM (inactive) | > 100 µM (inactive) | > 100 µM (inactive) |  | 79.8 µM (inactive) | > 100 µM (inactive) | > 100 µM (inactive) | > 100 µM (inactive) | > 100 µM (inactive) | > 100 µM (inactive) | > 100 µM (inactive) | > 100 µM (inactive) | 
CC(C)[C@H](C)/C=C/[C@@H](C)C1CC[C@H]2[C@@]34C=C[C@]5(C[C@@H](O)CC[C@]5(C)[C@H]3CC[C@]12C)OO4 (stereo partly specified) | 17.7 µM (inactive) | 24.3 µM (inactive) | 23.6 µM (inactive) | 44.5 µM (inactive) | 37.4 µM (inactive) |  | 20.4 µM (inactive) | 27.1 µM (inactive) | 39.3 µM (inactive) | 32.8 |  | 27.3 µM (inactive) |  | 27.9 µM (inactive) | 31.8 µM (inactive) | 89.5 µM (inactive) | 17.2 µM (inactive) | 40.1 µM (inactive) | 21.9 µM (inactive)
CN(C)c1nnnn1-c1c(N)n(C)c(=O)n(C)c1=O | > 100 µM (inactive) | > 100 µM (inactive) | > 100 µM (inactive) |  | > 100 µM (inactive) | > 100 µM (inactive) | > 100 µM (inactive) | > 100 µM (inactive) | > 100 µM (inactive) | > 100 |  | > 100 µM (inactive) | > 100 µM (inactive) | > 100 µM (inactive) | > 100 µM (inactive) | > 100 µM (inactive) | > 100 µM (inactive) | > 100 µM (inactive) | > 100 µM (inactive)
Cn1ncnc1CCc1ccccc1 | > 100 µM (inactive) | > 100 µM (inactive) | > 100 µM (inactive) | > 100 µM (inactive) | > 100 µM (inactive) | > 100 µM (inactive) | > 100 µM (inactive) | > 100 µM (inactive) |  | > 100 | > 100 µM (inactive) | > 100 µM (inactive) | > 100 µM (inactive) |  | > 100 µM (inactive) | > 100 µM (inactive) | > 100 µM (inactive) | > 100 µM (inactive) | 
COc1cc(Nc2cnc3ccc(N)cc3n2)cc(OC)c1OC | 36.6 µM (inactive) | > 100 µM (inactive) | 16.9 µM (inactive) | 45.3 µM (inactive) | > 100 µM (inactive) | > 65.2 µM (inactive) | > 100 µM (inactive) | > 100 µM (inactive) | > 100 µM (inactive) | 69.2 |  | 98.6 µM (inactive) | 19.8 µM (inactive) | > 100 µM (inactive) | 69.3 µM (inactive) | 41.3 µM (inactive) | 17.7 µM (inactive) | > 100 µM (inactive) | > 100 µM (inactive)
CCOC(=O)CCC(NC(=O)c1ccc(NCc2ccc3nc(-c4ccccc4)c(Cl)nc3c2)c2ccccc12)C(=O)OCC (stereo unspecified) | > 100 µM (inactive) | > 100 µM (inactive) | 9.14 µM (inactive) | > 100 µM (inactive) | > 100 µM (inactive) | > 100 µM (inactive) | > 100 µM (inactive) | > 100 µM (inactive) | > 100 µM (inactive) | > 100 |  | 58.1 µM (inactive) |  | > 100 µM (inactive) | > 100 µM (inactive) | > 100 µM (inactive) |  | > 100 µM (inactive) | > 100 µM (inactive)
